Experimental data: patent US20250214991A1 (Oncopia Therapeutics, Inc. d/b/a/ SK Life Science Labs, priority 2022, published 2025)

How the values were obtained:
IKZF2 = IKZF2 (Homo sapiens (Human), UniProt Q96SW2+Q9UKS7); experiment: In vitro IKZF2 HiBit Assay (HEK293T Flp-in-HiBiT cells); assay type: cell-based; settings: HEK293T Flp-in-HiBiT cells, 6 hrs incubation; for DC50: read-out: IKZF2 HiBit DC50; for Dmax: HEK-293T, read-out: IKZF2 HiBit Dmax (%)
Method: In Vitro IKZF2 HiBit Assay
The HiBiT protein tagging system was applied to modified HEK293T Flp-in-HiBiT cells (polyclone) via a CRISPR/Cas9-mediated insertion of the HiBiT peptide tag (Promega™) to the N-terminus of the IKZF2 gene locus (Neon™ transfection system). Test and reference compounds are diluted from 1 mM at 3 folds for 11 doses. 25 nL of diluted compound is transfered to assay plates (Corning3570) using ECHO550, the final DMSO concentration @ 0.1%. The cells are seeded in 3000/25 μL/well to compound plates. It is then incubated for 6 hrs in TC incubator. The amount of Nano-Glo® HiBiT lytic reagent needed to perform the desired experiments is calculated. The Nano-Glo® HiBiT lytic reagent is brought to room temperature. The LgBiT protein is diluted to 1:100 and the Nano-Glo® HiBiT lytic substrate is diluted to 1:50 into an appropriate volume of room temperature Nano-Glo® HiBiT lytic buffer. 15 μL of the detection reagent (or without LgBiT) is dispensed to corresponding well according to the layout. The plate is then shaked for 10 mins at room temperature. After briefly centrifuge, the plate is read on Envision. At the indicated timepoints, the Nano-Glo® HiBiT lytic detection system (Promega™) was utilized for detecting bioluminescence of the HiBiT tag in treated cells: abundance of the tag is proportionate to the level of luminescence. Following normalization to DMSO, dose-response curves were plotted (GraphPad Prism) to determine the concentration points at which 50% of HiBiT-Helios degradation was achieved by each compound. The extent of degradation (range of luminescence) from the highest to lowest concentration points was calculated to determine the Dmax.
(§1) DC50, A: <1 nM; B: 1-10 nM; C: 10-100 nM; D: 100-1000 nM; E: 1000-10000 nM; F: >10,000 nM. Dmax, A: >80%; B: 60-80%; C: 40-60%; D: 20-40%; E: <20%.

IKZF1 = IKZF1 (Homo sapiens (Human), UniProt Q13422+Q96SW2); experiment: In vitro IKZF1 HiBit Assay (HEK293T Flp-in-HiBiT-IKZF1 stable cell line); assay type: cell-based; settings: HEK293T Flp-in-HiBiT-IKZF1 stable cell line, 6 hrs incubation; for DC50: read-out: IKZF1 HiBit DC50; for Dmax: HEK-293T, read-out: IKZF1 HiBit Dmax (%)
Sequence of IKZF1 (Q13422 whole entry): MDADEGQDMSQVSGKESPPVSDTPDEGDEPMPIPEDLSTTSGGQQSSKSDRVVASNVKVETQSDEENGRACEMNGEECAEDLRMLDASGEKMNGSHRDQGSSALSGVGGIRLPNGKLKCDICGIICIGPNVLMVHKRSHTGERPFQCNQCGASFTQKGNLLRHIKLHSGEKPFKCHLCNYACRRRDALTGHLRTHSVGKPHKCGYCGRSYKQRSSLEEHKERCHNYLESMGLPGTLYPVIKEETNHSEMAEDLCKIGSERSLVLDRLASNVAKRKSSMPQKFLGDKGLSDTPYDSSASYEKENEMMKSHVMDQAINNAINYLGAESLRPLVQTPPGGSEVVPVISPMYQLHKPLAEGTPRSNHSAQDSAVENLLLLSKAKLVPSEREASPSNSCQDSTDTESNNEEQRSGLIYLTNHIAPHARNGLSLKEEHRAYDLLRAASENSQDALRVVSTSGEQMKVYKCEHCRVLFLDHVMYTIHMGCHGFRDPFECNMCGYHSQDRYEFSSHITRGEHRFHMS
Sequence of IKZF1 (Q96SW2 whole entry): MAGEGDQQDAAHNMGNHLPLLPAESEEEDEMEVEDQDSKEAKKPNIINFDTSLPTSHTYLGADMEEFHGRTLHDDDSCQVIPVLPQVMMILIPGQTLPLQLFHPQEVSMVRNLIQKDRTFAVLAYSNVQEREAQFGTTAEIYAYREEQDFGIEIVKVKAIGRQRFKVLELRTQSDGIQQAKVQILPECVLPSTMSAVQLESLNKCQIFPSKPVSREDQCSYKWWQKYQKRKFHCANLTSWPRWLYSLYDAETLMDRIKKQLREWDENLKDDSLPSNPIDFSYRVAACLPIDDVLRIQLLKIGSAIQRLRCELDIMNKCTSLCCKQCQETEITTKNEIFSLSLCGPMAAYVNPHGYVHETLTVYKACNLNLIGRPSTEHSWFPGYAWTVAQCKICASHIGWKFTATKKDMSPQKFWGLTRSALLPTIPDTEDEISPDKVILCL
Sequence of IKZF1 (Q16531 2-1140 partner): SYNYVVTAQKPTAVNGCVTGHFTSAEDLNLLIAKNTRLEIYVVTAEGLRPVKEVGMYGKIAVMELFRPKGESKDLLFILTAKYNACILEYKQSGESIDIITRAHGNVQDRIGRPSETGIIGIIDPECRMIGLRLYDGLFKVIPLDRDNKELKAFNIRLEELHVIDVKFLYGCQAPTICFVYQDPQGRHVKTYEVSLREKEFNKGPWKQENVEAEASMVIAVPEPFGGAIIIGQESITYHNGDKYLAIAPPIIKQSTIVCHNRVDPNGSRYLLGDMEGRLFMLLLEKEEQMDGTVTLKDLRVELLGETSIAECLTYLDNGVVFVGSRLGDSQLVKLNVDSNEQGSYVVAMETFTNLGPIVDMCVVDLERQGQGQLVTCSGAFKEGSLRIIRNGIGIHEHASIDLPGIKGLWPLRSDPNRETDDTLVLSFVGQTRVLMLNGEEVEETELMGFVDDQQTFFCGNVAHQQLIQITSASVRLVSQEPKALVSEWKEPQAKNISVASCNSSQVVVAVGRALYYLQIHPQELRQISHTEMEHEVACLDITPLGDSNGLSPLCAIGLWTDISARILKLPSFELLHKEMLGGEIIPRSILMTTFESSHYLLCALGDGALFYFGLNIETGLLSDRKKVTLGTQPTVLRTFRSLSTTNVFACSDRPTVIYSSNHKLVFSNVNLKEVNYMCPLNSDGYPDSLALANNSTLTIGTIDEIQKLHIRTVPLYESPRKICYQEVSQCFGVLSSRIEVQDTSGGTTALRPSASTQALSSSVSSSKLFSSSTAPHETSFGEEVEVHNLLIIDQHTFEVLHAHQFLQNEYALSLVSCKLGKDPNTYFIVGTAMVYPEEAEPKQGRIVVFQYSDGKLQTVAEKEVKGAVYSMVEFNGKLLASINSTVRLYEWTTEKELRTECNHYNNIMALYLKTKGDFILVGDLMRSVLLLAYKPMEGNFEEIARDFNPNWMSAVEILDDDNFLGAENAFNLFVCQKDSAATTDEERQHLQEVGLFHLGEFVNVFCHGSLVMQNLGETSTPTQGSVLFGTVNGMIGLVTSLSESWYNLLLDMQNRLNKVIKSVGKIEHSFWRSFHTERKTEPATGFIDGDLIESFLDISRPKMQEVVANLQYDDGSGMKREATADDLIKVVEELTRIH
Method: In Vitro IKZF1 HiBit Assay
The HiBiT protein tagging system was applied to modified Cells: modified HEK293T Flp-in-HiBiT-IKZF1 stable cell line (polyclone) via a CRISPR/Cas9-mediated insertion of the HiBiT peptide tag (Promega™) to the N-terminus of the […] gene locus (Neon™ transfection system).
25 nL of diluted compound is transferred to assay plates (Corning3571) using ECHO550, the final DMSO concentration @ 0.1%. The cells are seeded in 3000/25 μL/well to compound plates. The plates are incubated for 6 hrs in TC incubator. The amount of Nano-Glo® HiBiT lytic reagent needed to perform the desired experiments is calculated. The Nano-Glo® HiBiT lytic reagent is brought to room temperature. The LgBiT protein is diluted to 1:100 and the Nano-Glo® HiBiT lytic substrate is brought to 1:50 into an appropriate volume of room temperature Nano-Glo® HiBiT lytic buffer. 15 μL of the detection reagent (or without LgBiT) is dispensed to corresponding well according to the layout. The plate is shaked for 10 mins at room temperature. After briefly centrifuge, the plateis read on Envision. At the indicated timepoints, the Nano-Glo® HiBiT lytic detection system (Promega™) was utilized for detecting bioluminescence of the HiBiT tag in treated cells: abundance of the tag is proportionate to the level of luminescence. Following normalization to DMSO, dose-response curves were plotted (GraphPad Prism) to determine the concentration points at which 50% of HiBiT-Ikaros degradation was achieved by each compound. The extent of degradation (range of luminescence) from the highest to lowest concentration points was calculated to determine the Dmax.
as §1

Sequence of IKZF2 (Q9UKS7 whole entry): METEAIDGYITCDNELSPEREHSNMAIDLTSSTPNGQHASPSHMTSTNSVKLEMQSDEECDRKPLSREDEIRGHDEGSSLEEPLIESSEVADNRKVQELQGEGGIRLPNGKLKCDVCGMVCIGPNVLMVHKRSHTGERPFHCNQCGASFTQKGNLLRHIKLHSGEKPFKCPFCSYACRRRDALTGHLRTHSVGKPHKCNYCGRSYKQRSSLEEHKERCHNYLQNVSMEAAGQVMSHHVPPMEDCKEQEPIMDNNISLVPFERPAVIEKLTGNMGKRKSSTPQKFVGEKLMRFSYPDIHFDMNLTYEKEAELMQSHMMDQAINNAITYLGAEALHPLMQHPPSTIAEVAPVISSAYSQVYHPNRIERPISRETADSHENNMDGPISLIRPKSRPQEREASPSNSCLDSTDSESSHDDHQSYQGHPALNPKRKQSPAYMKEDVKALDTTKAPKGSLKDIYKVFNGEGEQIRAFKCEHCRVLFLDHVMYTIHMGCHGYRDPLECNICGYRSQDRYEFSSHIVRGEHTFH
Sequence of IKZF2 (Q96SW2 whole entry): as the sequence (Q96SW2 whole entry) above
Sequence of IKZF2 (Q16531 2-1140 partner): as the sequence (Q16531 2-1140 partner) above

SMILES | DC50 (IKZF2) | Dmax (IKZF2) | DC50 (IKZF1) | Dmax (IKZF1)
O=C1CCC(N2Cc3cc(-c4cc(CN5CC(O)C5)c5ccn(C6CC6)c5n4)ccc3C2=O)C(=O)N1 (centres unmarked) [Example 135, 3-(5-(1-cyclopropyl-4-((3-hydroxyazetidin-1-yl)methyl)-1H-pyrrolo[2,3-b]pyridin-6-yl)-1-oxoisoindolin-2-yl) piperidine-2,6-dione] | 1 to 10 nM | > 80% | > 10000 nM | < 20%
O=C1CCC(N2Cc3cc(-c4cc(CN5CCCC5)c5nccc(N6CCC6)c5n4)ccc3C2=O)C(=O)N1 (centres unmarked) [Example 243, 3-(5-(8-(azetidin-1-yl)-4-(pyrrolidin-1-ylmethyl)-1,5-naphthyridin-2-yl)-1-oxoisoindolin-2-yl) piperidine-2,6-dione] | 10 to 100 nM | 60 to 80% | 100 to 1000 nM | 20 to 40%
CNC(=O)Cn1ccc2c(CN3CCCC3)cc(-c3ccc4c(c3)CN(C3CCC(=O)NC3=O)C4=O)nc21 (centres unmarked) [Example 150, 2-(6-(2-(2,6-dioxopiperidin-3-yl)-1-oxoisoindolin-5-yl)-4-(pyrrolidin-1-ylmethyl)-1H-pyrrolo[2,3-b]pyridin-1-yl)-N-methylacetamide] | 10 to 100 nM | 60 to 80% | > 10000 nM | < 20%
O=C1CCC(N2Cc3cc(-c4cc(CN5CCCC5CF)c5ccn(C6COC6)c5n4)ccc3C2=O)C(=O)N1 (centres unmarked) [Example 257, 3-(5-(4-((2-(fluoromethyl)pyrrolidin-1-yl)methyl)-1-(oxetan-3-yl)-1H-pyrrolo[2,3-b]pyridin-6-yl)-1-oxoisoindolin-2-yl) piperidine-2,6-dione] | 1 to 10 nM | > 80% | 1 to 10 nM | 20 to 40%
CS(=O)(=O)Nc1n[nH]c2c(CN3CCCC3)cc(-c3ccc4c(c3F)CN(C3CCC(=O)NC3=O)C4=O)nc12 (centres unmarked) [Example 297, N-(5-(2-(2,6-dioxopiperidin-3-yl)-4-fluoro-1-oxoisoindolin-5-yl)-7-(pyrrolidin-1-ylmethyl)-1H-pyrazolo[4,3-b]pyridin-3-yl) methanesulfonamide] | > 10000 nM | < 20% | > 10000 nM | < 20%
O=C1CCC(N2Cc3cc(-c4cc(CN5CCCC5)c5cccc(C6CCC6)c5n4)ccc3C2=O)C(=O)N1 (centres unmarked) [Example 241, 3-(5-(8-cyclobutyl-4-(pyrrolidin-1-ylmethyl)quinolin-2-yl)-1-oxoisoindolin-2-yl) piperidine-2,6-dione] | 10 to 100 nM | 40 to 60% | > 10000 nM | < 20%
CO[C@H]1C[C@@H](Oc2ccnc3c(CN4CCCC4)cc(-c4ccc5c(c4)CN(C4CCC(=O)NC4=O)C5=O)nc23)C1 (some centres unmarked) [Example 281, 3-(5-(8-((1s,3s)-3-methoxycyclobutoxy)-4-(pyrrolidin-1-ylmethyl)-1,5-naphthyridin-2-yl)-1-oxoisoindolin-2-yl) piperidine-2,6-dione] | 10 to 100 nM | 60 to 80% | > 10000 nM | < 20%
O=C1CCC(N2Cc3cc(-c4cc(CN5CCCC5)c5nccc(OC6COC6)c5n4)ccc3C2=O)C(=O)N1 (centres unmarked) [Example 251, 3-(5-(8-(oxetan-3-yloxy)-4-(pyrrolidin-1-ylmethyl)-1,5-naphthyridin-2-yl)-1-oxoisoindolin-2-yl) piperidine-2,6-dione] | 10 to 100 nM | 60 to 80% | > 10000 nM | < 20%
O=C1CCC(N2Cc3cc(-c4cc(CN5CCCC5)c5c(C(F)(F)F)n[nH]c5n4)ccc3C2=O)C(=O)N1 (centres unmarked) [Example 134, 3-(1-oxo-5-(4-(pyrrolidin-1-ylmethyl)-3-(trifluoromethyl)-1H-pyrazolo[3,4-b]pyridin-6-yl)isoindolin-2-yl) piperidine-2,6-dione] | 1 to 10 nM | > 80% | > 10000 nM | < 20%
O=C1CCC(N2Cc3cc(-c4cc(CN5CCCC5C(F)F)c5ccn(C6COC6)c5n4)ccc3C2=O)C(=O)N1 (centres unmarked) [Example 252, 3-(5-(4-((2-(difluoromethyl)pyrrolidin-1-yl)methyl)-1-(oxetan-3-yl)-1H-pyrrolo[2,3-b]pyridin-6-yl)-1-oxoisoindolin-2-yl) piperidine-2,6-dione] | 10 to 100 nM | 40 to 60% | > 10000 nM | < 20%
O=C1CCC(N2Cc3cc(-c4cc(CN5CC(CO)C5)c5ccn(C6CC6)c5n4)ccc3C2=O)C(=O)N1 (centres unmarked) [Example 152, 3-(5-(1-cyclopropyl-4-((3-(hydroxymethyl)azetidin-1-yl)methyl)-1H-pyrrolo[2,3-b]pyridin-6-yl)-1-oxoisoindolin-2-yl) piperidine-2,6-dione] | 10 to 100 nM | > 80% | 100 to 1000 nM | 20 to 40%
CC(C)CC1CCN(Cc2cc(-c3ccc4c(c3)CN(C3CCC(=O)NC3=O)C4=O)nc3[nH]ccc23)C1 (centres unmarked) [Example 153, 3-(5-(4-((3-isobutylpyrrolidin-1-yl)methyl)-1H-pyrrolo[2,3-b]pyridin-6-yl)-1-oxoisoindolin-2-yl) piperidine-2,6-dione] | < 1 nM | > 80% | 10 to 100 nM | 40 to 60%
CC(C)Nc1n[nH]c2c(CN3CC4(COC4)C3)cc(-c3ccc4c(c3F)CN(C3CCC(=O)NC3=O)C4=O)nc12 (centres unmarked) [Example 287, 3-(5-(7-((2-oxa-6-azaspiro[3.3]heptan-6-yl)methyl)-3-(isopropylamino)-1H-pyrazolo[4,3-b]pyridin-5-yl)-4-fluoro-1-oxoisoindolin-2-yl) piperidine-2,6-dione] | 10 to 100 nM | 60 to 80% | 100 to 1000 nM | 20 to 40%
CS(=O)(=O)CCn1ccc2c(CN3CCCC3)cc(-c3ccc4c(c3)CN(C3CCC(=O)NC3=O)C4=O)nc21 (centres unmarked) [Example 136, 3-(5-(1-(2-(methylsulfonyl)ethyl)-4-(pyrrolidin-1-ylmethyl)-1H-pyrrolo[2,3-b]pyridin-6-yl)-1-oxoisoindolin-2-yl) piperidine-2,6-dione] | 10 to 100 nM | 20 to 40% | > 10000 nM | < 20%
CC(C)Nc1n[nH]c2c(CN3CCCC3)cc(-c3ccc4c(c3)CN(C3(C)CCC(=O)NC3=O)C4=O)nc12 (centres unmarked) [Example 294, 3-(5-(3-(isopropylamino)-7-(pyrrolidin-1-ylmethyl)-1H-pyrazolo[4,3-b]pyridin-5-yl)-1-oxoisoindolin-2-yl)-3-methylpiperidine-2,6-dione] | 1000 to 10000 nM | 20 to 40% | > 10000 nM | < 20%
O=C1CCC(N2Cc3cc(-c4cc(CN5CCCC5)c5nccc(NC6CC6)c5n4)ccc3C2=O)C(=O)N1 (centres unmarked) [Example 244, 3-(5-(8-(cyclopropylamino)-4-(pyrrolidin-1-ylmethyl)-1,5-naphthyridin-2-yl)-1-oxoisoindolin-2-yl) piperidine-2,6-dione] | 10 to 100 nM | 40 to 60% | > 10000 nM | < 20%
O=C1CCC(N2Cc3cc(-c4cc(CN5CCCC5)c5[nH]nc(C6CC6)c5n4)ccc3C2=O)C(=O)N1 (centres unmarked) [Example 202, 3-(5-(3-cyclopropyl-7-(pyrrolidin-1-ylmethyl)-1H-pyrazolo[4,3-b]pyridin-5-yl)-1-oxoisoindolin-2-yl) piperidine-2,6-dione] | 1 to 10 nM | > 80% | 1 to 10 nM | 40 to 60%
